pIC50: −log10 of the molar value. Marks after values point to notes of the source that are not given here.
Legend:
[1] = tested on: HCT-116 human colon carcinoma cells; test: Cytotoxicity, XTT assay; assay type: cell-based; conditions: XTT procedure, 72 hours incubation
Protocol: (§1) Cytoxicity was assessed in HCT-116 human colon carcinoma cells by either using an XTT or MTS procedure.
Cytotoxicity was assessed in HCT-116 human colon carcinoma cells by XTT (2,3-bis(2-methoxy-4-nitro-5-sulfpphenyl)-5-[(phenylamino)carbonyl]2H-tetrazolium hydroxide) assay as reported in D. A. Scudiero, et al., “Evaluation of soluble tetrazolium/formazan assay for cell growth and drug sensitivity in culture using human and other tumor cell lines,” Cancer Res. 48:4827-4833, 1988. Cells were plated at 4000 cells/well in 96 well microtiter plates and 24 hours later drugs were added and serial diluted. The cells were incubated at 37° C. for 72 hours at which time the tetrazolium dye, XTT, was added. A dehydrogenase enzyme in live cells reduces the XTT to a form that absorbs light at 450 nm which can be quantitated spectrophotometrically. The greater the absorbance, the greater the number of live cells. The results are expressed as an IC50, which is the drug concentration required to inhibit cell proliferation (i.e., absorbance at 450 nm) to 50% of that of untreated control cells.

[2] = tested on: murine lung carcinoma, M109; test: In vivo antitumor testing, sc M109 tumor model; set-up: species or system mice; conditions: for iv activity compared to concomitantly evaluated iv paclitaxel: scM109 tumors
Description: (§2) Animals. Conventional or athymic (“nude”) mice, and nude rats, were implanted subcutaneously (sc) with tumor brei or fragments. Murine tumor were implanted in conventional mice, human tumors were implanted into nude mice or rats.
(§3) Tumors. A variety of tumors have been utilized but not all of them have necessarily been used to evaluate each and every taxane. The tumors utilized most often included the murine lung carcinoma, M109, the murine mammary carcinoma, MAM 16/C, the human ovarian carcinoma. A2780, the human colon tumors, HCT-116 and HCT-116/pk.
(§4) Treatments are initiated at differing times post-implantation depending upon the desired stringency of the test system; in general, the greater the delay post-tumor implantation, the larger the tumors at the start of therapy. Typically, treatments were begun in the M109 tumor model on Day 4 post-tumor implant, Day 7 in the MAM 16/C tumor model, and when tumors were between 100 and 500 mg in size (typically Day 7 to Day 12 post-tumor implant) for each of the human tumor xenograft models (e.g., A2780, HCT-116 and HCT-116/pk). Group sizes were typically 8 per treatment and control groups in mouse experiments and 7 per treatment and control groups in rat experiments.
Treatments for taxanes administered orally (po) were done by gavage using a vehicle consisting of 10% ethanol +10% Cremophor EL+80% water. The volume of liquid administered was 0.01 ml per gram of body weight for mice, and 0.005 ml per gram of body weight for rats. A typical mouse experiment would involve the evaluation of each test compound at three different dose levels, but only one to three test groups per compound were included in rat experiments. In every experiment, intravenously (iv) administered paclitaxel was included as a reference drug.
(§5) Paclitaxel was administered iv on treatment schedules and doses established from experience as being optimal, or near optimal, for the particular tumor, tumor staging, and host animal under study. It was given once daily, for five consecutive daily treatments (i.e., qd×5), when evaluated in the M109 and MAM 16/C tumor models, once daily every other day for five treatments (i.e., q2d×5) when administered to mice bearing human tumors, and once daily every other or every fourth day for five or three treatments, respectively (i.e., q2d×5 or q4d×3), to rats.
(§6) Orally administered taxanes were evaluated on the same treatment schedules just described for iv administered paclitaxel, plus other treatment schedules such as daily for nine days, or every eight days for two treatments.
Antitumor activity was assessed by determining the size of tumors in all treated and control experimental animals over time. Each animal was individually identified and the growth of the tumor implanted into each animal was measured once or twice weekly using a calipers. The difference in median time for tumors in treated (T) and control (C) groups to reach a predetermined size (e.g., 500 or 1,000 milligrams) was calculated, and assessments of absolute and relative antitumor effects (e.g., between compounds) were made on the basis of the delays in time to reach predetermined tumor target sizes. Animals with tumors of 35 mg or less at the termination of an experiment were termed “cures”. Experiments were terminated typically after a period of time had elapsed post-treatment that was at least 10 times the tumor volume doubling time (TVDT) of the median tumor growth in control animals as assessed prior to their reaching the predetermined tumor target size in each experiment. Activity in a test group was defined as having caused a delay in tumor growth (median time to reach tumor target size) relative to the concomitant control tumor growth (i.e. T-C) of 3.32 times the TVDT. Activity was expressed in log cell kill which was equal to (T-C)/(TVDT×3.32). Toxicity was determined by measuring the average body weight of all animals in an experiment prior to, and soon after, any treatments in the experiment. […]

[3] = tested on: human ovarian carcinoma A2780; test: In vivo antitumor testing, A2780 xenograft model; set-up: species or system nude mice
Description: as §2, §3, §4
Treatments for taxanes administered orally (po) were done by gavage using a vehicle consisting of 10% ethanol +10% Cremophor EL+80% water. […]
as §5, §6
Antitumor activity was assessed by determining the size of tumors in all treated and control experimental animals over time. Each animal was individually identified and the growth of the tumor implanted into each animal was measured once or twice weekly using a calipers. The difference in median time for tumors in treated (T) and control (C) groups to reach a predetermined size (e.g., 500 or 1,000 milligrams) was calculated, and assessments of absolute and relative antitumor effects (e.g., between compounds) were made on the basis of the delays in time to reach predetermined tumor target sizes. […]

[4] = human or animal models, prior art; cited from earlier work
[5] = tested on: HCT-116 human colon carcinoma cells; test: Cytotoxicity, MTS assay; assay type: cell-based; conditions: MTS procedure, 72 hours incubation
Protocol: as §1
Cytoxicity was assessed in HCT-116 human colon carcinoma cells by MTS (3-(4,5-dimethylthiazol-2-yl)-5-(3-carboxymethoxyphenyl)-2-(4-sulphenyl)-2H-tetrazolium, inner salt) assay as reported in T. L. Riss, et. al., “Comparison of MTT, XTT, and a novel tetrazolium compound MTS for in vitro proliferation and chemosensitivity assays.” Mol. Biol. Cell 3 (Suppl.):184a, 1992. Cells were plated at 4,000 cell/well in 96 well microtiter plates and 24 hours later drugs were added and serial diluted. The cells were incubated at 37° form 72 hours at which time the tetrazolium dye, MTS at 333 μg/ml (final concentration), in combination with the electron coupling agent phenazine methosulfate at 25 μM (final concentration) was added. A dehydrogenase enzyme in live cells reduces the MTS to a form that absorbs light at […] which can be quantitated spectrophotometrically. The greater the absorbance the greater the number of live cells. The results are expressed as an IC50, which is the drug concentration required to inhibit cell proliferation (i.e. absorbance at 450 nm) to 50% of that of untreated control cells. The IC50 values for compounds evaluated in this assay are evaluated in Table I.

## 10-(2-amino)benzoyl-7-deoxy paclitaxel [Ih]
[1]
  pIC50: 6.99

## CC(=O)OC12COC1CCC1(C)C(=O)C(OC(=O)c3ccccc3[N+](=O)[O-])C3=C(C)C(OC(=O)C(O)C(NC(=O)c4ccccc4)c4ccccc4)CC(O)(C(OC(=O)c4ccccc4)C12)C3(C)C (stereo not drawn) [If, 10-(2-Nitro)benzoyl-7-deoxy paclitaxel]
[1]
  pIC50: 7.88

## CC(=O)O[C@H]1C(=O)[C@@]2(C)[C@H]([C@H](OC(=O)c3ccccc3)[C@]3(O)C[C@H](OC(=O)[C@H](O)[C@@H](NC(=O)c4ccccc4)c4ccccc4)C(C)=C1C3(C)C)[C@]1(OC(C)=O)CO[C@@H]1C[C@@H]2O [Paclitaxel, paclitaxel, reference compound]
[2]; iv, optimal dose and schedule (qd×5), M109, concomitantly evaluated
  Optimal Activity of iv Paclitaxel: 0.7 LCK
[3]; iv, optimal dose and schedule (q2d×5), A2780, concomitantly evaluated
  Optimal Activity of iv Paclitaxel: 5.9 LCK
[4]
  oral activity: no oral activity

## CC(=O)OC12COC1CCC1(C)C(=O)C(OC(=O)COc3ccccc3)C3=C(C)C(OC(=O)C(O)C(NC(=O)c4ccccc4)c4ccccc4)CC(O)(C(OC(=O)c4ccccc4)C12)C3(C)C (stereo not drawn) [Ie, 10-Phenoxyacetyl-7-deoxy paclitaxel]
[1]
  pIC50: 8.09

## CC(=O)OC12COC1CCC1(C)C(=O)C(OC(=O)N3CCOCC3)C3=C(C)C(OC(=O)C(O)C(NC(=O)c4ccccc4)c4ccccc4)CC(O)(C(OC(=O)c4ccccc4)C12)C3(C)C (stereo not drawn) [Ic, 10-Morpholinoyl-7-deoxy paclitaxel]
[1]
  pIC50: 8.83

## CC(=O)OC12COC1CCC1(C)C(=O)C(OC(=O)C=Cc3ccccc3)C3=C(C)C(OC(=O)C(O)C(NC(=O)c4ccccc4)c4ccccc4)CC(O)(C(OC(=O)c4ccccc4)C12)C3(C)C (stereo not drawn) [Ig, 10-Cinnamoyl-7-deoxy paclitaxel]
[1]
  pIC50: 7.55

## CCCCCCCC(=O)OC1C(=O)C2(C)CCC3OCC3(OC(C)=O)C2C(OC(=O)c2ccccc2)C2(O)CC(OC(=O)C(O)C(NC(=O)c3ccccc3)c3ccccc3)C(C)=C1C2(C)C (stereo not drawn) [Id, 10-Octanoyl-7-deoxy paclitaxel]
[1]
  pIC50: 7.01

## 3′N-(2-furoyl)-7-deoxy paclitaxel [Ib]
[5]
  pIC50: 9.07
[2]; iv, 20 mg/kg per injection, M109
  IV Activity in LCK: 0.7 LCK
[2]; iv
  iv activity compared to concomitantly evaluated iv paclitaxel: equiactive to paclitaxel
[2]; oral, M109 model
  oral activity: active orally
[2]; po, 40 mg/kg per administration, M109
  PO Activity in LCK: 0.7 LCK
[3]; oral, A2780 model
  oral activity compared to optimal iv paclitaxel: equallyactive if not better
[3]; po, 85 mg/kg per administration, A2780
  PO Activity in LCK: >7 LCK
[3]; po, 85 mg/kg per administration, A2780, cure = tumor of 35 mg or less at termination
  Cures (mice cured / tested): (1/8)**

## 7-deoxy-3′-(4-hydroxyphenyl)-3′N-t-butoxycarbonyl paclitaxel [Compound Ia]
[5]
  pIC50: 8.37
[2]; iv, 13 mg/kg per injection, M109, log cell kill = (T-C)/(TVDT×3.32)
  IV Activity in LCK: 1.4 LCK
[2]; iv
  iv activity compared to concomitantly evaluated iv paclitaxel: surprising activity

## CC(=O)O[C@@]12CO[C@@H]1C[C@H](O)[C@@]1(C)C(=O)[C@H](O)C3=C(C)[C@@H](OC(=O)[C@H](O)[C@@H](NC(=O)OC(C)(C)C)c4ccccc4)C[C@@](O)([C@@H](OC(=O)c4ccccc4)[C@H]21)C3(C)C [TAXOTERE®, docetaxel]
[4]
  oral activity: no oral activity

Reference: US6362217B1, “Taxane anticancer agents” (Bristol-Myers Squibb Company, priority 2000, dated 2002)
